Assay results as given in patent US11419865B2, “Method for inducing a sustained immune response” (Cytocom Inc., priority 2016, dated 2022).
Like-named read-outs stand apart in the source and are kept apart here.

What was measured:
[1] = system: cancer patients; assay: cancer case reports; type: in vivo, human
Procedure: person diagnosed with stage 3-stomach cancer prognosis 6 months to live on Mar. […] 28, 2007. In addition to Immediate release naltrexone patients received chemotherapy and kidney stents inserted. […].
Person diagnosed with stage 4 pleural mesothelioma in December of 2008 and patients after consult with two other doctors it was determined due to the state of the diseases and other health issues to watch the tumors and not do chemotherapy. Prognosis was 6 to 12 months. Patient started 4.5 mg nightly and received on other treatment but did change diet. […] […].
A person diagnosed with stage 4-colon cancer, 2007 which had spread to their lungs and liver, they removed 40% of their colon and began a round of chemotherapy and three surgeries removed 40% of their colon, half is their right lung and 75% of their liver. During the next 18 months received 47 weeks of chemotherapy (a combination of 4 chemo drugs at once). […].
person was diagnosed with stage 3 prostate cancer which they were originally treated for 5 years before began 3 rounds of Docetaxel (Taxotere®). They were prescribed 4.5 mg of […]

[2] = system: diabetic neuropathy patient; assay: diabetic neuropathy case report; type: in vivo, human
Description: person, diagnosed with diabetic neuropathy for the last six years was prescribed one or two tablets every four to six hours as needed for pain. Patient takes between 4 to 8 tablets a day.

[3] = system: HIV; conditions: 3 mg compounded, with ART, cited from earlier work
[4] = system: patients with hematologic malignancies; assay: randomized controlled trial of quality of life (EORTC QLQ-C30), 89 hematologic cancer patients; type: in vivo, human
Procedure: 89 patients Hematologic Cancer Patients This was a randomized controlled trial assessing quality of life in patients with hematologic malignancies from a single institute in Hamedan. […] Quality of life was measured using the EORTC QLQ-C30 in four points in time (at admission, 1, 3 and 5 months follow-up).
Data were analyzed to compare quality of life in two groups. In total, 89 patients were studied (45 in treatment group and 44 in placebo group). There were no significant differences between two groups either in demographic and clinical characteristics or in baseline quality of life scores.
This study aimed to investigate its effect on hematologic cancer patients. This was a randomized controlled trial assessing quality of life in patients with hematologic malignancies from a single institute. […] Quality of life was measured using the EORTC QLQ-C30 in four points in time (at admission, 1, 3 and 5 months follow-up). Data were analyzed to compare quality of life in two groups. Totally, 89 patients were studied (45 in treatment group and 44 in placebo group). There were no significant differences between two groups either in demographic and clinical characteristics or in baseline quality of life scores. However, at 1 month, 3 and 5-month follow-up assessments significant differences were observed. […].

[5] = system: MS patients; assay: multiple sclerosis case reports; type: in vivo, human
[6] = system: MS patients; assay: retrospective chart review of MS patients receiving LDN; type: in vivo, human
Description: This study investigated the safety, tolerability, and benefits (fatigue, reduction) of LDN in patients with MS. It reviewed the number of patients who stopped taking LDN and if there were specific reasons for stopping the LDN. The frequency and variety of side effects that were specific to LDN use are reported. […] 1, 2005 and May 31, 2012. There were 215 MS patients having exposure to LDN during the time of this study. […] In addition to the assessment we review Brain MRIs and Spinal Cord MRIs that were obtained as part of the clinical status of the patient and standard of care.
It reviewed the number of patients who stopped taking IMMEDIATE RELEASE NALTREXONE (LDN) and if there were specific reasons for stopping the IMMEDIATE RELEASE NALTREXONE (LDN). […] 1, 2005 and May 31, 2012. […]. In addition to the assessment we review Brain MRIs and Spinal Cord MRIs that were obtained as part of the clinical status of the patient and standard of care. […].

[7] = system: children with autism; assay: autism, 155 children in 10 studies; type: in vivo, human
Description: 155 children participated in 10 studies; 27 received placebo. […].

[8] = system: women meeting criteria for fibromyalgia; assay: fibromyalgia study in ten women; type: in vivo, human; conditions: 4.5 mg
Description: […]. […] Baseline erythrocyte sedimentation rate predicted over 80% of the variance in drug response. […]. Which confirms the ability of Immediate release naltrexone to decree pain and inflammation.

In the case of O=C1CC[C@@]2(O)[C@H]3Cc4ccc(O)c5c4[C@@]2(CCN3CC2CC2)[C@H]1O5 [Immediate release naltrexone, naltrexone], the “tolerance of chemotherapy, person, stage 4-colon cancer” value ([1]; 4.5 mg nightly from June of 2007 with chemotherapy) is reported as “able to complete the entire protocol without any major side effects at all”, the “tolerance of chemotherapy, person, stage 3 prostate cancer” value ([1]; 4.5 mg nightly with 3 rounds of Docetaxel) is reported as “able to withstand the chemotherapy and their blood work stayed stable throughout the protocol” and the “CAT scans, person, stage 4 pleural mesothelioma” value ([1]; 4.5 mg nightly, no chemotherapy, February 2009 and 2010) is reported as “no measurable growth of tumors”. For the same compound, the “disease course, person, stage 4-colon cancer” value ([1]; 4.5 mg nightly, scans every six months) was “continued cancer free until June of 2015”, the “CT scan, person, stage 3-stomach cancer” value ([1]; 4.5 mg with chemotherapy, September 2007) was “tumors shrunk in half” and the “disease status, person, stage 3-stomach cancer” value ([1]; 4.5 mg, December of 2007) was “in remission and stable”. The “CT scan, person, stage 3-stomach cancer” value ([1]; 4.5 mg, March 2008) was “tumors had shrunk in half”, the “scan, person, stage 3-stomach cancer” value ([1]; 4.5 mg, March of 2009) was “tumors were stable” and the “additional benefits, diabetic neuropathy” value ([2]; 4.5 mg) was “resolutions of RLS”. The “pain medication use, diabetic neuropathy” value ([2]; 4.5 mg from March of 2015, within 3 days) was “cut down the number of pills in half”, the “pain medication use, diabetic neuropathy” value ([2]; 4.5 mg, within 8 weeks) was “stopped all pain medication” and the “improvement in CD4 count vs control group” value ([3]; at 6 months, p=0.041, 51 vs 49 subjects) was “significantly greater than the control group”. The “improvement in CD4 count vs control group” value ([3]; at 9 months, p=0.067) was “marginally”, the “Improvement in CD4%” value ([3]; throughout treatment) was “not statistically significant” and the “social functioning (EORTC QLQ-C30) vs placebo” value ([4]; 3 mg capsules daily plus routine treatment, one month follow-up, p<0.05) was “better condition in the treatment group”. The blood laboratory tests ([4]; 3 mg daily) was “no changes in the blood laboratory tests”, the “social functioning, role functioning, nausea and vomiting and appetite loss vs placebo” value ([4]; 3 mg daily, 3-month follow-up, all p-values<0.05) was “better in the treatment group” and the “physical, social, role functioning, global quality of life, nausea and vomiting and appetite loss vs placebo” value ([4]; 3 mg daily, 5-month follow-up) was “significantly better”. The “first three months, person, Secondary Progressive MS” value ([5]; 1.5 mg at bedtime increasing to 3 mg from July of 2005) was “no real improvement in the first three months accept no flair of MS”, the “disease course, person, relapsing remitting MS” value ([5]; 1.5 mg increasing to 4.5 mg nightly with progesterone, estriol, Cortef) was “back at work for 5 years without an exacerbation” and the “MRI, person, secondary-progressive multiple sclerosis (SPMS)” value ([5]; 1.5 mg then 3 mg from July of 2009, January of 2011) was “MRI showed reduced plaque and lesion size”. For the same compound, the “disease course, person, fast deteriorating M.S.” value ([5]; 1.5 mg, 3 mg, then 4.5 mg for seven months) was “the disease has stabilized and the progressive deterioration has stopped”, the “disease course, person, M.S. of 35 years” value ([5]; 3 mg for 30 days then 4.5 mg at bedtime, over three months) was “regained their ability to see and walk and their cognitive ability improved as well” and the “mobility, person four, Relapsing Remitting MS, wheelchair bound” value ([5]; 3 mg nightly from July 2004) was “walking again with a cane for assistance within 10 days”. For the same compound, the “relapses, person two, Relapsing Remitting MS” value ([5]; 4.5 mg at bedtime since 2002) was “has not had a one relapse”, the “side effects, person four, Relapsing Remitting MS” value ([5]; 4.5 mg nightly from August of 2004) was “minimal side effects some insomnia” and the “relapses, person four, Relapsing Remitting MS” value ([5]; 4.5 mg nightly, last update 2010) was “no relapses”. For the same compound, the “MRI, person two, Relapsing Remitting MS” value ([5]; 4.5 mg, over the last 8 years) was “no progression of the disease”, the “mobility, person, Secondary Progressive MS” value ([5]; months 3 to 6, later 4.5 mg) was “upgraded from wheelchair to cane” and the “quality of life over a long period of time” value ([6]; 215 MS patients exposed) was “improvement in quality of life”. For the same compound, the “Brain MRI scans showing improvement” value ([6]; of 215 patients) was 14 MRI scans, the “Brain MRI scans slightly worse” value ([6]; of 215 patients, new but inactive lesion(s)) was 28 MRI scans and the “children with statistically significant improvement in symptoms of irritability and hyperactivity” value ([7]; 98 of the 128 that received naltrexone) was 77%. For the same compound, the “side effects and tolerability” value ([7]; in vivo) was “Side effects were mild and the drug was generally well tolerated”, the “Side effects (including insomnia and vivid dreams)” value [8] was “rare, and described as minor and transient” and the “mechanical and heat pain thresholds” value ([8]; laboratory visits) was “improved”.
